We go through 22 molecules from US4138485A, “Phenylalanine derivatives” (Kyowa Hakko Kogyo Kabushiki Kaisha, priority 1976, dated 1979).

By LD50 is commonly meant the dose expected to kill half of the subjects tested.

A short description of one data set: Acute toxicity in mice. Conditions: in vivo, mouse, after one week. How it is done: (§1) (1) Acute toxicity and tonic convulsion in hind paw:
(§2) The acute toxicity and tonic convulsion occured by stimulus by hand touch were determined in the following manner to give the results shown in Table 2.
(a) Acute toxicity in mice:
38 Groups, each consisting of 5 mice (male dd-strain, weight -- 18 to 24 g), were used for the test and control groups. The compounds shown in Table 2 were administered orally or intraperitoneally to the mice. After one week, the survival ratio was measured.

The nature of another data set: Acute toxicity in rats. Conditions: in vivo; rat, oral administration, after one week; read-out: Acute Toxicity (LD50), C. Here is the method:
as §1, §2
(b) Acute toxicity in rats:
28 Groups, each consisting of 5 rats (male Wistar strain, weight -- 200 g), were used for the test and control groups. The compounds shown in Table 2 were orally administered to the rats. After one week, the survival ratio was measured.

Data set [1] relates to hyperlipemia induced by Triton. The data set is described as follows: Cholesterol-lowering activity on hyperlipemia induced by Triton in mice. The class given is in vivo, mice (male dd-strain). Conditions: Mus musculus, po, 43 h, read-out: Ratio of the reduction of cholesterol. How it is done:
(2) Cholesterol-Lowering activity on hyperlipemia induced by Triton in mice:
38 Groups, each consisting of 9 mice (male dd-strain, weight -- 19 to 21 g), were used for the test and control groups. […] Immediately after the administration and also after 20 hours from the administration of Triton, the mice were orally administered with 100 mg/kg of the compound shown in Table 3. 43 hours after the administration of Triton, the blood samples were collected by decapitation and then the corpuscle was removed by centrifugation. Cholesterol in the serum was determined by Zurkowski's method modified by Shibata (color of the test solution was developed by using sulfoalicyclic acid, acetic acid and sulfuric acid and the optical density of the solution was determined at 620 mμ.

A further data set relates to Cholesterol in the serum. The data set is described as follows: Cholesterol-lowering activity on normal rats of Wistar strain (serum cholesterol, liver weight). The format is in vivo, rats (male Wistar strain). Conditions: continuous administration for 4 days, 0.3% in diet. Here is the method:
(3) Cholesteral-lowering activity on normal rats of Wistar strain:
(i) 22 Groups, each consisting of 5 rats (male Wistar strain, weight -- 150 to 180 g) were used for the test and control groups. After this, the blood samples were collected by decapitation and then the corpuscle was removed by centrifugation. Cholesterol in the serum was determined by Zurkowski's method modified by Shibata and also the liver was excised and weighed. The results are shown in Table 4 wherein the ratio of 100% denotes the amount of chloresterol and the weight of the liver of normal rats fed with powdery diet without the addition of the compound.

Where [2] appears, read: oral administration, read-out: Acute Toxicity (LD50), A.
The mark [3] stands for this setting: ip, intraperitoneal administration, read-out: Acute Toxicity (LD50), B.

As for `Cc1c(C)c(C)c(CSC(=O)N[C@@H](Cc2ccccc2)C(=O)O)c(C)c1C` [Compound 29, N-(2,3,4,5,6-pentamethylbenzylthiocarbonyl)-L-phenylalanine], the LD50 at 168 h was above 1000 mg/kg in the data set “Acute toxicity in mice” (setting [2]) and above 100 mg/kg in “Acute toxicity in rats”. In data set [1], the inhibition in vivo at 100 mg/kg came to 59%.
With `Cc1ccc(C)c(CSC(=O)N[C@@H](Cc2ccccc2)C(=O)O)c1` [Compound 26, N-(2,5-dimethylbenzylthiocarbonyl)-L-phenylalanine], the LD50 at 168 h was above 1000 mg/kg in the data set “Acute toxicity in mice” (setting [2]) and above 100 mg/kg in the data set “Acute toxicity in rats”. Moreover, in data set [1], the inhibition in vivo at 100 mg/kg stood at 43%. In addition, in the data set with Cholesterol in the serum, the “B - Ratio of decrease of liver weight” value worked out at 0.8%.
Consider `O=C(N[C@@H](Cc1ccccc1)C(=O)O)SCc1ccc(F)cc1` [Compound 33, N-(4-fluorobenzylthiocarbonyl)-L-phenylalanine], for which the LD50 at 168 h in “Acute toxicity in mice” (setting [2]) was above 1000 mg/kg. Moreover, in data set [1], the inhibition in vivo at 100 mg/kg is 79%.
For the molecule `Cc1ccc(CSC(=O)N[C@@H](Cc2ccccc2)C(N)=O)cc1` [Compound 4, N-(4-methylbenzylthiocarbonyl)-L-phenylalanine amide], the 50% lethal dose (LD50) at 168 h in “Acute toxicity in mice” (setting [3]) is above 100 mg/kg; in the data set “Acute toxicity in mice” (setting [2]), above 1000 mg/kg; in the data set “Acute toxicity in rats”, above 100 mg/kg. In data set [1], the inhibition in vivo at 100 mg/kg came out at 23%. Also, the “B - Ratio of decrease of liver weight” value with Cholesterol in the serum worked out at 6.2%.
Consider `NC(=O)[C@H](Cc1ccccc1)NC(=O)SCc1ccc(Cl)cc1` [Compound 9, N-(4-chlorobenzylthiocarbonyl)-L-phenylalanine amide], for which the figures for the LD50 at 168 h in the data set “Acute toxicity in mice” (setting [3]), in the data set “Acute toxicity in mice” (setting [2]) and in the data set “Acute toxicity in rats” were above 100 mg/kg, above 1000 mg/kg and above 100 mg/kg, respectively. Moreover, the inhibition in vivo at 100 mg/kg in data set [1] came out at 57%. For the same molecule, in the data set with Cholesterol in the serum, the “B - Ratio of decrease of liver weight” value is reported as 71%.
Regarding `CCNC(=O)[C@H](Cc1ccccc1)NC(=O)SCc1ccc(C)cc1` [Compound 5, N-(4-methylbenzylthiocarbonyl)-L-phenylalanine ethylamide], the 50% lethal dose (LD50) at 168 h in the data set “Acute toxicity in mice” (setting [3]) is above 100 mg/kg; in “Acute toxicity in mice” (setting [2]), above 1000 mg/kg; in “Acute toxicity in rats”, above 100 mg/kg. In addition, the inhibition in vivo at 100 mg/kg in data set [1] stood at 0%.
For `COC(=O)[C@H](Cc1ccccc1)NC(=O)[C@H](Cc1ccccc1)NC(=O)SCc1ccc(Cl)cc1` [Compound 11, N-(4-chlorobenzylthiocarbonyl)-L-phenylalanyl-L-phenylalanine methylester], the results for the LD50 at 168 h in the data set “Acute toxicity in mice” (setting [3]), in the data set “Acute toxicity in mice” (setting [2]) and in “Acute toxicity in rats” were above 100 mg/kg, above 300 mg/kg and above 100 mg/kg, respectively. Also, the inhibition in vivo at 100 mg/kg in data set [1] is 75%.
With `CC(=O)Oc1ccc(CSC(=O)N[C@@H](Cc2ccccc2)C(=O)O)cc1` [Compound 36, N-(4-acetoxybenzylthiocarbonyl)-L-phenylalanine], the median lethal dose (LD50) at 168 h in the data set “Acute toxicity in mice” (setting [2]) was above 1000 mg/kg. Further, in data set [1], the inhibition in vivo at 100 mg/kg was determined as 83%.
Turning to `Cc1ccc(CSC(=O)N[C@H](Cc2ccccc2)C(=O)O)cc1` [Compound 34, N-(4-methylbenzylthiocarbonyl)-D-phenylalanine], the median lethal dose (LD50) at 168 h in the data set “Acute toxicity in mice” (setting [2]) was above 1000 mg/kg. In addition, the inhibition in vivo at 100 mg/kg in data set [1] turned out to be 11%.
On to `COC(=O)[C@H](Cc1ccccc1)NC(=O)SCc1c(C)c(C)c(C)c(C)c1C` [Compound 30, N-(2,3,4,5,6-pentamethylbenzylthiocarbonyl)-L-phenylalanine methylester], for which the median lethal dose (LD50) at 168 h was above 1000 mg/kg in the data set “Acute toxicity in mice” (setting [2]) and above 100 mg/kg in the data set “Acute toxicity in rats”. In addition, in data set [1], the inhibition in vivo at 100 mg/kg is 68%. The “B - Ratio of decrease of liver weight” value with Cholesterol in the serum turned out to be 11.0%.
Regarding `COC(=O)[C@H](Cc1ccccc1)NC(=O)[C@H](Cc1ccccc1)NC(=O)SCc1ccc(C)cc1` [Compound 6, N-(4-methylbenzylthiocarbonyl)-L-phenylalanyl-L-phenylalanine methylester], the LD50 at 168 h is above 100 mg/kg in the data set “Acute toxicity in mice” (setting [3]), above 300 mg/kg in “Acute toxicity in mice” (setting [2]) and above 100 mg/kg in “Acute toxicity in rats”. Moreover, in data set [1], the inhibition in vivo at 100 mg/kg stood at 39%.
As for `COC(=O)[C@H](Cc1ccccc1)NC(=O)SCc1ccc(O)cc1` [Compound 37, N-(4-hydroxybenzylthiocarbonyl)-L-phenylalanine methylester], in “Acute toxicity in mice” (setting [2]), the LD50 at 168 h was above 1000 mg/kg. In data set [1], the inhibition in vivo at 100 mg/kg came to 74%.
For the molecule `O=C(N[C@@H](Cc1ccccc1)C(=O)O)SCc1ccc(Cl)cc1` [Compound 7, N-(4-chlorobenzylthiocarbonyl)-L-phenylalanine], the results for the 50% lethal dose (LD50) at 168 h in “Acute toxicity in mice” (setting [3]), in the data set “Acute toxicity in mice” (setting [2]) and in the data set “Acute toxicity in rats” were above 100 mg/kg, above 300 mg/kg and above 100 mg/kg, respectively. For the same molecule, in data set [1], the inhibition in vivo at 100 mg/kg came to 94%.
With `CC(C)(C)c1ccc(CSC(=O)N[C@@H](Cc2ccccc2)C(=O)O)cc1` [Compound 28, N-(4-tert-butylbenzylthiocarbonyl)-L-phenylalanine], the values for the LD50 at 168 h in “Acute toxicity in mice” (setting [2]) and in the data set “Acute toxicity in rats” were above 1000 mg/kg and above 100 mg/kg, respectively. Besides, in data set [1], the inhibition in vivo at 100 mg/kg worked out at 50%. The “B - Ratio of decrease of liver weight” value in the data set on Cholesterol in the serum was determined as 10.6%.
In the case of `Cc1ccc(CSC(=O)NC(Cc2ccccc2)C(=O)O)cc1` (racemic) [Compound 35, N-(4-methylbenzylthiocarbonyl)-DL-phenylalanine], the 50% lethal dose (LD50) at 168 h in the data set “Acute toxicity in mice” (setting [2]) was above 1000 mg/kg. Besides, in data set [1], the inhibition in vivo at 100 mg/kg was 22%.
`CCOC(=O)[C@H](Cc1ccccc1)NC(=O)SCc1ccc(C)cc1` [Compound 3, N-(4-methylbenzylthiocarbonyl)-L-phenylalanine ethylester]: the LD50 at 168 h in the data set “Acute toxicity in mice” (setting [2]) was above 1000 mg/kg. In addition, in data set [1], the inhibition in vivo at 100 mg/kg amounted to 57%.
For the molecule `Cc1cccc(C)c1CSC(=O)N[C@@H](Cc1ccccc1)C(=O)O` [Compound 24, N-(2,6-dimethylbenzylthiocarbonyl)-L-phenylalanine], the figures for the median lethal dose (LD50) at 168 h in the data set “Acute toxicity in mice” (setting [2]) and in the data set “Acute toxicity in rats” were above 1000 mg/kg and above 100 mg/kg, respectively. In data set [1], the inhibition in vivo at 100 mg/kg was determined as 34%. Further, in the data set on Cholesterol in the serum, the “B - Ratio of decrease of liver weight” value worked out at 15.0%.
For the molecule `CCNC(=O)[C@H](Cc1ccccc1)NC(=O)SCc1ccc(Cl)cc1` [Compound 10, N-(4-chlorobenzylthiocarbonyl)-L-phenylalanine ethylamide], the LD50 at 168 h was above 100 mg/kg in “Acute toxicity in mice” (setting [3]), above 300 mg/kg in the data set “Acute toxicity in mice” (setting [2]) and above 100 mg/kg in “Acute toxicity in rats”. Further, in data set [1], the inhibition in vivo at 100 mg/kg turned out to be 43%.
In the case of `O=C(N[C@@H](Cc1ccccc1)C(=O)O)SCc1cccc2ccccc12` [Compound 31, N-(α-naphthylmethylthiocarbonyl)-L-phenylalanine], the results for the 50% lethal dose (LD50) at 168 h in the data set “Acute toxicity in mice” (setting [2]) and in “Acute toxicity in rats” were above 1000 mg/kg and above 100 mg/kg, respectively. In data set [1], the inhibition in vivo at 100 mg/kg is 74%. Further, the “B - Ratio of decrease of liver weight” value with Cholesterol in the serum came out at 24.4%.
Take `COC(=O)C(Cc1ccccc1)NC(=O)SCc1ccccc1` (racemic) [Compound 19, N-benzylthiocarbonyl-D,L-phenylalanine methylester]: the 50% lethal dose (LD50) at 168 h in the data set “Acute toxicity in mice” (setting [2]) is above 1000 mg/kg; in “Acute toxicity in rats”, above 100 mg/kg. For the same molecule, the inhibition in vivo at 100 mg/kg in data set [1] turned out to be 84%. Further, the “B - Ratio of decrease of liver weight” value in the data set with Cholesterol in the serum is on record as 19.8%.
For the molecule `COC(=O)[C@H](Cc1ccccc1)NC(=O)SCc1ccc(Cl)cc1` [Compound 8, N-(4-chlorobenzylthiocarbonyl)-L-phenylalanine methylester], the results for the LD50 at 168 h in the data set “Acute toxicity in mice” (setting [3]), in the data set “Acute toxicity in mice” (setting [2]) and in “Acute toxicity in rats” were above 100 mg/kg, above 4000 mg/kg and above 200 mg/kg, respectively. In data set [1], the inhibition in vivo at 100 mg/kg is 88%.
Regarding `COC(=O)[C@H](Cc1ccccc1)NC(=O)SCc1cccc(C)c1` [Compound 23, N-(3-methylbenzylthiocarbonyl)-L-phenylalanine methylester], in the data set “Acute toxicity in mice” (setting [2]), the LD50 at 168 h was above 1000 mg/kg. Besides, the inhibition in vivo at 100 mg/kg in data set [1] was 48%.
